Test results reported in the NIST ThermoML archive (doi:10.1021/je700282w).
Numbers after ± are expanded uncertainties.

Assay: activity coefficient (dimensionless); of the first substance listed, at infinite dilution; xn = mol fraction of the nth substance listed
Conditions: 101 kPa, Liquid, Chromatography, x1 = 0

Structure (SMILES)	activity coefficient (303.15 K)	activity coefficient (313.15 K)	activity coefficient (323.15 K)	activity coefficient (333.15 K)	activity coefficient (343.15 K)	activity coefficient (353.15 K)	activity coefficient (363.15 K)
Cc1ccccc1C [1,2-dimethylbenzene] + CCCCn1cc[n+](C)c1.O=S(=O)([O-])C(F)(F)F	3.66 ± 0.36	3.67 ± 0.36	3.68 ± 0.37	3.7 ± 0.37	3.71 ± 0.37	3.76 ± 0.37	3.78 ± 0.38
Cc1cccc(C)c1 [1,3-dimethylbenzene] + CCCCn1cc[n+](C)c1.O=S(=O)([O-])C(F)(F)F	4.72 ± 0.47	4.66 ± 0.46	4.58 ± 0.46	4.47 ± 0.45	4.41 ± 0.44	4.33 ± 0.43	4.07 ± 0.41
Cc1ccc(C)cc1 [1,4-dimethylbenzene] + CCCCn1cc[n+](C)c1.O=S(=O)([O-])C(F)(F)F	4.3 ± 0.43	4.32 ± 0.43	4.33 ± 0.43	4.37 ± 0.43	4.41 ± 0.44	4.42 ± 0.44	4.42 ± 0.44
CC(C)CC(C)(C)C [2,2,4-trimethylpentane] + CCCCn1cc[n+](C)c1.O=S(=O)([O-])C(F)(F)F	57 ± 5.7	52.9 ± 5.3	50.9 ± 5.1	47.9 ± 4.8	45.6 ± 4.5	43.9 ± 4.4	40.8 ± 4.1
c1ccccc1 [benzene] + CCCCn1cc[n+](C)c1.O=S(=O)([O-])C(F)(F)F	1.81 ± 0.18	1.82 ± 0.18	1.83 ± 0.18	1.84 ± 0.18	1.86 ± 0.18	1.87 ± 0.19	1.9 ± 0.19
C1CCCCC1 [cyclohexane] + CCCCn1cc[n+](C)c1.O=S(=O)([O-])C(F)(F)F	21.8 ± 2.2	20.5 ± 2	19.2 ± 1.9	18.1 ± 1.8	16.9 ± 1.7	15.5 ± 1.5	14.6 ± 1.4
C1=CCCCC1 [cyclohexene] + CCCCn1cc[n+](C)c1.O=S(=O)([O-])C(F)(F)F	10.9 ± 1.1	10.4 ± 1	10.1 ± 1	9.69 ± 0.96	9.34 ± 0.93	9.15 ± 0.91	8.82 ± 0.88
CCCCCCCCCC [decane] + CCCCn1cc[n+](C)c1.O=S(=O)([O-])C(F)(F)F	897	709	576	483	409	348	306
CCc1ccccc1 [ethylbenzene] + CCCCn1cc[n+](C)c1.O=S(=O)([O-])C(F)(F)F	4.62 ± 0.46	4.57 ± 0.46	4.54 ± 0.45	4.52 ± 0.45	4.5 ± 0.45	4.49 ± 0.45	4.47 ± 0.44
CCCCCCC [heptane] + CCCCn1cc[n+](C)c1.O=S(=O)([O-])C(F)(F)F	56.7 ± 5.7	51.6 ± 5.2	48.5 ± 4.8	46 ± 4.6	43.3 ± 4.3	41.1 ± 4.1	38.8 ± 3.9
CCCCCC [hexane] + CCCCn1cc[n+](C)c1.O=S(=O)([O-])C(F)(F)F	37.8 ± 3.8	35.7 ± 3.6	33.9 ± 3.4	32.1 ± 3.2	30.3 ± 3	29.1 ± 2.9	27.6 ± 2.8
CC1CCCCC1 [methylcyclohexane] + CCCCn1cc[n+](C)c1.O=S(=O)([O-])C(F)(F)F	30.2 ± 3	28.5 ± 2.8	26.8 ± 2.7	25.4 ± 2.5	24.1 ± 2.4	22.9 ± 2.3	21.6 ± 2.1
CCCCCCCCC [nonane] + CCCCn1cc[n+](C)c1.O=S(=O)([O-])C(F)(F)F	122 ± 12	111 ± 11	103 ± 10	93.3 ± 9.3	88.2 ± 8.8	81.3 ± 8.1	75.9 ± 7.6
CCCCCCCC [octane] + CCCCn1cc[n+](C)c1.O=S(=O)([O-])C(F)(F)F	87.2 ± 8.7	79.9 ± 8	74.1 ± 7.4	68.3 ± 6.8	63.2 ± 6.3	60.3 ± 6	55.1 ± 5.5
CCCCC [pentane] + CCCCn1cc[n+](C)c1.O=S(=O)([O-])C(F)(F)F	26.5 ± 2.6	24.9 ± 2.5	23.9 ± 2.4	23.2 ± 2.3	22.2 ± 2.2	21.2 ± 2.1	19.9 ± 2
C=Cc1ccccc1 [styrene] + CCCCn1cc[n+](C)c1.O=S(=O)([O-])C(F)(F)F	2.46 ± 0.24	2.48 ± 0.25	2.49 ± 0.25	2.51 ± 0.25	2.53 ± 0.25	2.54 ± 0.25	2.57 ± 0.26
Cc1ccccc1 [toluene] + CCCCn1cc[n+](C)c1.O=S(=O)([O-])C(F)(F)F	2.72 ± 0.27	2.75 ± 0.27	2.78 ± 0.28	2.8 ± 0.28	2.83 ± 0.28	2.85 ± 0.28	2.88 ± 0.29
